Earlier results as cited in patent publication US9961901B2, “Mectin and milbemycin nanoparticle formulations” (priority 2013, dated 2018).
Like-named read-outs stand apart in the source and are kept apart here.

Experiments:
[1] = 20° C.
[2] = not given; remark: listed apart in the source

Solubility, n-heptane ([1]; n-heptane) | Aqueous Photolysis DT50 ([2]; pH 5) | Molecule | Octanol-Water Coefficient Log P | Solubility, Methanol [1] | Solubility, Water [1] | Aqueous Photolysis DT50 ([2]; pH 7) | Solubility, Acetone ([1]; acetone) | Solubility, Ethyl Acetate ([1]; ethyl acetate)
n-heptane: 5,060 mg/L | DT50: 3 d at pH 5 (aqueous | milbemycin | Log P: 6.8 | Methanol: 251,000 mg/L | Water 3.6 mg/L |  |  | 
 |  | emamectin | Log P: 5.0 | Methanol: 2700 g/L | Water: 24 mg/L | DT50: 32 d at pH 7 |  | 
 |  | CC[C@H](C)[C@H]1O[C@]2(C=C[C@@H]1C)C[C@@H]1C[C@@H](C/C=C(\C)[C@@H](O[C@H]3C[C@H](OC)[C@@H](O[C@H]4C[C@H](OC)[C@@H](O)[C@H](C)O4)[C@H](C)O3)[C@@H](C)/C=C/C=C3\CO[C@@H]4[C@H](O)C(C)=C[C@@H](C(=O)O1)[C@]34O)O2 [abamectin] | Log P: 4.4 |  | Water: 1.21 mg/L | DT50: 1.5 d at pH 7 | Acetone: 72,000 mg/L | Ethyl Acetate: 160,000 mg/L
